How the values were obtained:
bermudagrass = experiment: Test C pre-/postemergence test; assay type: in vivo, Cynodon dactylon; settings: for Plant response rating, Bermudagrass: scale 0 to 100, 0 no effect, 100 complete control
Procedure, shortened: (§1)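 Seeds were planted and treated preemergence with test chemical in a non-phytotoxic solvent mixture containing surfactant. Postemergence applications of the same formulation went onto plants 2 to 18 cm tall (1- to 4-leaf stage). A dash marks no test result.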

wild oat = experiment: Test C pre-/postemergence test; assay type: in vivo, Avena fatua; settings: Postemergence; for Plant response rating, Oat, Wild: scale 0 to 100, 0 no effect, 100 complete control
Procedure, shortened: as §1

wheat = experiment: Test C pre-/postemergence test; assay type: in vivo, Triticum aestivum; settings: Postemergence; for Plant response rating, Wheat: scale 0 to 100, 0 no effect, 100 complete control
Procedure, shortened: as §1

johnsongrass = experiment: Test C pre-/postemergence test; assay type: in vivo, Sorghum halepense; settings: for Plant response rating, Johnsongrass: scale 0 to 100, 0 no effect, 100 complete control
Procedure, shortened: as §1

kochia = experiment: Test C pre-/postemergence test; assay type: in vivo, Kochia scoparia; settings: for Plant response rating, Kochia: scale 0 to 100, 0 no effect, 100 complete control
Procedure, shortened: as §1

redroot pigweed = experiment: Test A pre-/postemergence greenhouse test; assay type: in vivo, Amaranthus retroflexus; settings: for Pigweed plant response rating: 0 to 100 scale
Procedure, shortened: (§2)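 Two application timings were run side by side in the greenhouse. Before emergence, compound went onto the soil surface of loam–sand pots as a directed spray; after emergence, plants at 2–10 cm and the one- to two-leaf stage were treated. Visual injury versus controls was rated at approximately day ten.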

cocklebur = experiment: Test C pre-/postemergence test; assay type: in vivo, Xanthium strumarium; settings: for Plant response rating, Cocklebur: scale 0 to 100, 0 no effect, 100 complete control
Procedure, shortened: as §1

morningglory [1] = experiment: Test C pre-/postemergence test; assay type: in vivo, Ipomoea coccinea; settings: for Plant response rating, Morningglory: scale 0 to 100, 0 no effect, 100 complete control
Procedure, shortened: as §1

corn [2] = experiment: Test A pre-/postemergence greenhouse test; assay type: in vivo, Zea mays; settings: for Corn plant response rating: 0 to 100 scale
Procedure, shortened: as §2

corn [3] = experiment: Test C pre-/postemergence test; assay type: in vivo, Zea mays; settings: for Plant response rating, Corn: scale 0 to 100, 0 no effect, 100 complete control
Procedure, shortened: as §1

morningglory [4] = experiment: Test A pre-/postemergence greenhouse test; assay type: in vivo, Ipomoea spp.; settings: for Morningglory plant response rating: 0 to 100 scale
Procedure, shortened: as §2

Italian ryegrass = experiment: Test C pre-/postemergence test; assay type: in vivo, Lolium multiflorum; settings: Postemergence; for Plant response rating, Ryegrass, Italian: scale 0 to 100, 0 no effect, 100 complete control
Procedure, shortened: as §1

[5] = test system: common (oilseed) sunflower; experiment: Test C pre-/postemergence test; assay type: in vivo, Helianthus annuus; settings: for Sunflower plant response rating: preemergence, scale 0 (no effect) to 100 (complete control)
Procedure, shortened: as §1

giant foxtail = experiment: Test C pre-/postemergence test; assay type: in vivo, Setaria faberii; settings: for Plant response rating, Foxtail, Giant: scale 0 to 100, 0 no effect, 100 complete control
Procedure, shortened: as §1

eastern black nightshade = experiment: Test C pre-/postemergence test; assay type: in vivo, Solanum ptycanthum
Excerpt: Seeds of plant species selected from blackgrass (Alopecurus myosuroides), downy brome (Bromus tectorum), green foxtail (Setaria viridis), Italian ryegrass (Lolium multiflorum), wheat (Triticum aestivum), wild oat (Avena fatua), catchweed bedstraw (Galium aparine), Russian thistle (Salsola kali), […] (Cynodon dactylon), Surinam grass (Brachiaria decumbens), cocklebur (Xanthium strumarium), corn (Zea mays), crabgrass (Digitaria sanguinalis), woolly cupgrass (Eriochloa villosa), giant foxtail (Setaria faberii), Goosegrass (Eleusin indica), johnsongrass (Sorghum halepense), kochia (Kochia scoparia), lambsquarters (Chenopodium album), morningglory (Ipomoea coccinea), eastern black nightshade (Solanum ptycanthum), yellow nutsedge (Cyperus esculentus), pigweed (Amaranthus retroflexus), common ragweed (Ambrosia elation), soybean (Glycine max), common (oilseed) sunflower (Helianthus annuus), and velvetleaf (Abutilon theophrasti) were planted and treated preemergence with test chemicals formulated in a non-phytotoxic solvent mixture which included a surfactant. At the same time, plants selected from these crop and weed species and also winter barley (Hordeum vulgare), canarygrass (Phalaris minor), and chickweed (Stellaria media) were treated with postemergence applications of some of the test chemicals formulated in the same manner. Plants ranged in height from 2 to 18 cm (1- to 4-leaf stage) for postemergence treatments. […] At time of treatment, test pots were flooded to 3 cm above the soil surface, treated by application of test compounds directly to the paddy water, and then maintained at that water depth for the duration of the test. […] A dash (-) response means no test result.

yellow nutsedge = experiment: Test C pre-/postemergence test; assay type: in vivo, Cyperus esculentus; settings: for Plant response rating, Nutsedge, Yellow: scale 0 to 100, 0 no effect, 100 complete control
Procedure, shortened: as §1

[6] = 31 g ai/ha, Preemergence, scale 0 to 100
[7] = 62 g ai/ha, preemergence, scale 0 (no effect) to 100 (complete control)
[8] = preemergence, 125 g ai/ha, scale 0 (no effect) to 100 (complete control)
[9] = Postemergence, 125 g ai/ha, 0 is no effect, 100 is complete control
[10] = Postemergence, 500 g ai/ha, 0 is no effect, 100 is complete control
[11] = Preemergence, 125 g ai/ha, 0 no effect, 100 complete control
[12] = Preemergence, 500 g ai/ha, 0 to 100 scale where 0 is no effect and 100 is complete control

Cn1nc(C(F)(F)F)c(C[S+]([O-])c2ccc(Cl)c[n+]2[O-])c1OC(F)F (stereo not drawn) [Compound 6]
85: Plant response rating, Ryegrass, Italian (Italian ryegrass; 125 g ai/ha)
5: Sunflower plant response rating ([5]; 125 g ai/ha)
90: Plant response rating, Corn (corn [2]; [12]) | Morningglory plant response rating (morningglory [4]; [10]) | Morningglory plant response rating (morningglory [4]; [11]) | Plant response rating, Ryegrass, Italian (Italian ryegrass; 250 g ai/ha)
50: Plant response rating, Bermudagrass (bermudagrass; Postemergence, 125 g ai/ha) | Plant response rating, Oat, Wild (wild oat; 62 g ai/ha) | Plant response rating, Morningglory (morningglory [1]; Postemergence, 62 g ai/ha) | Plant response rating, Morningglory (morningglory [1]; Postemergence, 125 g ai/ha) | Plant response rating, Morningglory (morningglory [1]; Postemergence, 250 g ai/ha) | Plant response rating (0 to 100), Ryegrass, Italian (Italian ryegrass; 62 g ai/ha) | Foxtail, Giant plant response rating (giant foxtail; [6])
65: Johnsongrass plant response rating (johnsongrass; [6])
0: Plant response rating (0 to 100), Bermudagrass (bermudagrass; Postemergence, 31 g ai/ha) | Plant response rating (0 to 100), Johnsongrass (johnsongrass; Postemergence, 31 g ai/ha) | Plant response rating, Johnsongrass (johnsongrass; Postemergence, 62 g ai/ha) | Kochia plant response rating (kochia; [7]) | Plant response rating (0 to 100), Kochia (kochia; Postemergence, 31 g ai/ha) | Plant response rating, Kochia (kochia; Postemergence, 62 g ai/ha) | Plant response rating, Kochia (kochia; Postemergence, 125 g ai/ha) | Plant response rating, Kochia (kochia; Postemergence, 250 g ai/ha) | Plant response rating (0 to 100), Kochia (kochia; Preemergence, 250 g ai/ha) | Cocklebur plant response rating (cocklebur; [6]) | Cocklebur plant response rating (cocklebur; [7]) | Plant response rating (0 to 100), Cocklebur (cocklebur; Postemergence, 31 g ai/ha) | Plant response rating, Cocklebur (cocklebur; Postemergence, 62 g ai/ha) | Plant response rating, Cocklebur (cocklebur; Postemergence, 125 g ai/ha) | Plant response rating, Cocklebur (cocklebur; Postemergence, 250 g ai/ha) | Plant response rating (0 to 100), Cocklebur (cocklebur; Preemergence, 250 g ai/ha) | Cocklebur plant response rating (cocklebur; [8]) | Morningglory plant response rating (morningglory [1]; [6]) | Morningglory plant response rating (morningglory [1]; [7]) | Corn plant response rating (corn [3]; [6]) | Plant response rating (0 to 100), Corn (corn [3]; Postemergence, 31 g ai/ha) | Plant response rating, Corn (corn [3]; Postemergence, 62 g ai/ha) | Plant response rating, Corn (corn [3]; Postemergence, 125 g ai/ha) | Plant response rating, Corn (corn [3]; Postemergence, 250 g ai/ha) | Plant response rating (0 to 100), Ryegrass, Italian (Italian ryegrass; 31 g ai/ha) | Sunflower plant response rating ([5]; 62 g ai/ha) | Plant response rating (0 to 100), Foxtail, Giant (giant foxtail; Postemergence, 31 g ai/ha) | Nutsedge, Yellow plant response rating (yellow nutsedge; [6]) | Plant response rating (0 to 100), Nutsedge, Yellow (yellow nutsedge; Postemergence, 31 g ai/ha) | Plant response rating, Nutsedge, Yellow (yellow nutsedge; Postemergence, 62 g ai/ha) | Plant response rating, Nutsedge, Yellow (yellow nutsedge; Postemergence, 125 g ai/ha)
30: Plant response rating, Johnsongrass (johnsongrass; Postemergence, 125 g ai/ha) | Plant response rating, Foxtail, Giant (giant foxtail; Postemergence, 62 g ai/ha)
20: Plant response rating (0 to 100), Oat, Wild (wild oat; 31 g ai/ha) | Plant response rating (0 to 100), Wheat (wheat; 31 g ai/ha) | Plant response rating (0 to 100), Wheat (wheat; 62 g ai/ha) | Plant response rating, Wheat (wheat; 125 g ai/ha) | Nutsedge, Yellow plant response rating (yellow nutsedge; [7]) | Plant response rating, Nutsedge, Yellow (yellow nutsedge; Postemergence, 250 g ai/ha)
25: Plant response rating, Wheat (wheat; 250 g ai/ha)
70: Plant response rating (0 to 100), Morningglory (morningglory [1]; Preemergence, 250 g ai/ha) | Plant response rating, Foxtail, Giant (giant foxtail; Postemergence, 250 g ai/ha)
98: Bermudagrass plant response rating (bermudagrass; [6]) | Bermudagrass plant response rating (bermudagrass; [7]) | Johnsongrass plant response rating (johnsongrass; [7]) | Johnsongrass plant response rating (johnsongrass; [8]) | Plant response rating (0 to 100), Corn (corn [3]; Preemergence, 250 g ai/ha) | Foxtail, Giant plant response rating (giant foxtail; [8]) | Nightshade plant response rating (eastern black nightshade; [7]) | Plant response rating (0 to 100), Nutsedge, Yellow (yellow nutsedge; Preemergence, 250 g ai/ha)
60: Plant response rating, Oat, Wild (wild oat; 250 g ai/ha) | Corn plant response rating (corn [2]; [9]) | Corn plant response rating (corn [3]; [7]) | Corn plant response rating (corn [3]; [8]) | Plant response rating, Foxtail, Giant (giant foxtail; Postemergence, 125 g ai/ha)
95: Foxtail, Giant plant response rating (giant foxtail; [7])
80: Plant response rating, Bermudagrass (bermudagrass; Postemergence, 250 g ai/ha) | Corn plant response rating (corn [2]; [10]) | Corn plant response rating (corn [2]; [11]) | Morningglory plant response rating (morningglory [4]; [9]) | Nutsedge, Yellow plant response rating (yellow nutsedge; [8])
35: Plant response rating, Johnsongrass (johnsongrass; Postemergence, 250 g ai/ha)
10: Plant response rating, Bermudagrass (bermudagrass; Postemergence, 62 g ai/ha) | Plant response rating (0 to 100), Morningglory (morningglory [1]; Postemergence, 31 g ai/ha) | Morningglory plant response rating (morningglory [1]; [8]) | Plant response rating (0 to 100), Sunflower ([5]; Preemergence, 250 g ai/ha)
100: Plant response rating (0 to 100), Bermudagrass (bermudagrass; Preemergence, 250 g ai/ha) | Bermudagrass plant response rating (bermudagrass; [8]) | Plant response rating (0 to 100), Johnsongrass (johnsongrass; Preemergence, 250 g ai/ha) | Pigweed plant response rating (redroot pigweed; [9]) | Pigweed plant response rating (redroot pigweed; [10]) | Pigweed plant response rating (redroot pigweed; [11]) | Plant response rating, Pigweed (redroot pigweed; [12]) | Plant response rating, Morningglory (morningglory [4]; [12]) | Plant response rating (0 to 100), Foxtail, Giant (giant foxtail; Preemergence, 250 g ai/ha) | Plant response rating (0 to 100), Nightshade (eastern black nightshade; Preemergence, 250 g ai/ha)

— patent publication US20100298141A1, “SUBSTITUTED PYRIDINE N-OXIDE HERBICIDES” (E. I. DU PONT DE NEMOURS AND COMPANY, priority 2007, published 2010)
